The source of these data is BindingDB's records for doi:10.1124/jpet.104.069260 (University of Texas At Austin, 2004).

The test addresses Sodium-dependent serotonin transporter (Homo sapiens, UniProt P31645).

Sodium-dependent serotonin transporter, sequence (P31645 whole entry): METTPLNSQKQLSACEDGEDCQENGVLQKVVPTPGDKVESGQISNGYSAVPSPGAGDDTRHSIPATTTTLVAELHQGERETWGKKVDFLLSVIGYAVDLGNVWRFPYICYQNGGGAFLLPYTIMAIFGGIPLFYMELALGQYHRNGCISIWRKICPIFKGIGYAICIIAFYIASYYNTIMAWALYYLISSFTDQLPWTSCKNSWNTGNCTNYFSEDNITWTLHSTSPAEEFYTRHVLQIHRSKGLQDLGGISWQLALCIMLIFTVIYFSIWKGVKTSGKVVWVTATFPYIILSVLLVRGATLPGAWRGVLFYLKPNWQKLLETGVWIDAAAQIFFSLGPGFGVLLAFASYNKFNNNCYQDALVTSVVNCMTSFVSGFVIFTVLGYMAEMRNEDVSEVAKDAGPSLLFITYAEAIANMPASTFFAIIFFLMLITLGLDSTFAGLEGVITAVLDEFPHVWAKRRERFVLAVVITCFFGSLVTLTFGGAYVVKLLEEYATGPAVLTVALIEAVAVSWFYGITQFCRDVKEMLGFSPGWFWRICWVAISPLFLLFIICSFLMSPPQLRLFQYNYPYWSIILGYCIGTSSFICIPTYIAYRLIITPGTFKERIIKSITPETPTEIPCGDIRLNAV

For the compound `CC(N)Cc1ccc2c(c1)OCO2` (configuration not stated), the Ki (in general, the dissociation constant of the complex between target and ligand, obtained from inhibition or displacement) is above 10 µM.

The compound `CN[C@@H](C)Cc1ccc2c(c1)OCO2` [DL-(3,4-Methylenedioxy)methamphetamine] displayed a Ki above 10 µM.
